“And” between values parts separate entries of the source, which are not always exact repeats. Equal values may be shown once. The source made the active and inactive calls.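 The calls were made as follows: active = compounds giving half or more protection of infected cells from virus-caused growth loss, again on retest; inactive = the rest.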
Tested on: CEM cells HIV-1 protection, formazan growth assay
Experiment: NCI AIDS Antiviral Assay
Conditions: for IC50: measured here: growth of uninfected CEM cells
Outline: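 Screen of anti-HIV-1 activity in human CEM cells using a formazan-based growth measurement at five drug concentrations. Hits with 50% or greater protection were repeated, and confirmation required reproducible complete protection.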

Compound	EC50 [µM]	IC50	outcome
CC1=NN(c2ccccc2)C(=O)/C1=C1\SC(c2ccccc2)(c2ccccc2)c2ccccc21	> 200	> 200 µM	
CC(C)OP(=O)(OC(C)C)C(N(C)C)P(=O)(OC(C)C)OC(C)C.[CH3][Sn]([CH3])([Cl])[Cl]	> 302	17.4 µM	
Cc1ccnc(NC(=S)Nc2cccc(Cl)c2)c1	57.5	> 200 µM	
O=C1C=C(c2ccccc2)OC1(Cl)c1ccccc1 (centres undefined)	> 200	38 µM	
CC1=NNC(=NCCN(C)C)C/C1=C/c1ccccc1Cl			inactive
COc1ccc(C(=O)C2=NON3OC23C(=O)c2ccc(OC)cc2)cc1 (centres undefined)	> 38	6.76 µM	
CCCNCC(O)COc1ccc2c3c(c(=O)oc2c1)CCC3 (centres undefined)	> 200	87.1 µM	
C(#CCN1CCCC1)CCCN1CCCC1	> 200	> 200 µM	
COC1=C2CC(C)CC(OC)C(O)C(C)/C=C(\C)C(OC(N)=O)C(OC)/C=C\C=C(/C)C(=O)NC(=C(/C=N/N3CCCCC3)C1=O)C2=O (centres undefined)	> 200	3.89 µM	
CC(C)CN(CC(=O)Nc1cccc(Cl)c1)CC(C)C	> 200	141 µM	
CCCCCCCCCC1(N=[N+]=[N-])C(=O)c2ccccc2N(C)C1=O (centres undefined)	> 200	33.9 µM	
Cc1ccc2nc3cc(C)c(=O)cc-3sc2c1	> 56.2	37.2 µM	
COCN1CCC2N(COC)CCC3N(COC)CCC1N23 (centres undefined)			inactive
CCOC(=O)C1CCc2c1c(C#N)c1[nH]c3ccccc3n1c2=O (centres undefined)	> 234	> 234 µM	
C/C(=N\N(C)C)c1sc(-n2nc(-c3ccccc3)cc2-c2ccccc2)nc1C	> 46.8	> 46.8 µM	
[Cu+2].[Cu+2].[NH-]c1c(N=Nc2ccc(/C=C/c3ccc(N=Nc4cc(S(=O)(=O)[O-])c5cccc(S(=O)(=O)[O-])c5c4[NH-])cc3S(=O)(=O)[O-])c(S(=O)(=O)[O-])c2)cc(S(=O)(=O)[O-])c2cccc(S(=O)(=O)[O-])c12.[Na+]	10.5	24 µM	
O=[N+]([O-])c1ccc2[nH]c(=S)n(/C=C(/c3ccc(Cl)cc3Cl)S(=O)(=O)Cc3ccc(Cl)cc3Cl)c2c1	> 200	170 µM	
Nc1cn(C2OC(CC(c3ccccc3)(c3ccccc3)c3ccccc3)C(O)C2O)c(=O)[nH]c1=O (centres undefined)	> 138	28.8 µM	
CC(=O)Nc1cc(Cl)cc2[nH]c(C)nc12	> 955	676 µM	
Cc1ccc2[nH]c3[nH]c(=O)[nH]c(=O)c3c2c1	> 200	> 200 µM	
NC(=O)CC(N)C(=O)NC(Cc1ccccc1)C(=O)NC(Cc1ccccc1)NC(=O)C(Cc1c[nH]c2ccccc12)C(=O)O (centres undefined)	> 200	> 200 µM	
C=CCC(CC=O)(C(=O)OCC)C(=O)OCC	> 200	110 µM	

Compound	EC50 [µM]	IC50	outcome
CCOC(=O)C(=CNc1ccc(N(C2=NCC(C)S2)c2ccc(F)c(Cl)c2)cc1)C(=O)OCC (centres undefined)			inactive
COc1ccc(OC)c(C(O)C(C)NC(C)(C)C)c1 (centres undefined)	> 200	> 200 µM	
CCN(CC)CCOc1ccc(/C(C#N)=C/c2ccc3ccccc3c2)cc1	> 100	0.933 µM	
CC(C)C(O)(C(=O)OCN1C(=O)C2C3C=CC(C2C1=O)C1C2C(=O)N(COC(=O)C(O)(C(C)C)C(C)O)C(=O)C2C31)C(C)O (centres undefined)	> 200	> 200 µM	
COc1ccc(CSCc2cc(OC)c(OC)c(OC)c2)cc1	> 200	25.7 µM	
c1ccc(C2=NOC3COc4ccccc4OCC23)cc1 (centres undefined)	> 93.3	> 93.3 µM	
CCCCN(CCCC)CC(C(=O)Nc1ccc([N+](=O)[O-])cc1[N+](=O)[O-])/C(C)=N\NC(=O)C[N+](C)(C)C (centres undefined)	> 46.8	> 46.8 µM	
C=C1CCC2C(C)(CO)C(O)CCC2(C)C1CC(O)/C(=C/CO)C(=O)O (centres undefined)			inactive
NC(CC(=O)OCc1ccccc1)C(=O)OCc1ccccc1 (centres undefined)	> 200	> 200 µM	
Cc1noc(NS(=O)(=O)c2ccc(NC(=S)N/C=C(\C#N)C(N)=O)cc2)c1C			inactive
COc1ccc2c(C)cc(N/N=C/c3sccc3C)nc2c1	> 200	8.32 µM	
CSc1nc(NC2OC(COC(C)=O)C(OC(C)=O)C(OC(C)=O)C2OC(C)=O)c(N=C(C)C(C)=O)c(=O)n1C (centres undefined)			inactive
O=[N+]([O-])c1ccc(-n2nnc(C3=NCCCN3)c2-c2ccc(Cl)cc2)cc1	1.38	148 µM	
CC(=O)C1(Cc2cccc3ccccc23)S(=O)(=O)OCCOS1(=O)=O	> 200	110 µM	
COc1ccc(-c2cc3ccccc3[nH]c2=O)cc1OC			inactive
CCC(=O)NC1=CC(=O)C(=O)c2cccnc21			inactive
CC1=[N+]([O-])C(C)(C)N(O)C1(C)C	> 200	> 200 µM	
CCOCCN(CCOCC)C(=O)c1ccc2c(c1)no[n+]2[O-]	> 200	135 µM	
CC1=C(C(=O)NCc2ccccc2)C(/C=C/c2ccccc2)C(C(=O)NCc2ccccc2)=C(C)N1			inactive
O=C(O)CCCCCCCCCCCCCCC(=O)O	> 18.2	> 18.2 µM	
CC12CCC(=O)N1c1cc([N+](=O)[O-])ccc1N2 (centres undefined)			inactive
NC1(C(=O)O)CSSC1		10.7 µM and 8.71 µM	

Compound	EC50 [µM]	IC50	outcome
COc1ccc2nc3cc(Cl)ccc3c(Nc3ccc(C(=O)O)c(O)c3)c2c1	> 60.3	> 60.3 µM	
CCOC(=O)C1(C(=O)OCC)CCCN1C(=O)[C@H](CNC(=O)OC(C)(C)C)NC(=O)OCc1ccccc1			inactive
CCCNC(=S)NN1C2CSC1CS2	> 178	> 178 µM	
O=[N+]([O-])c1ccc(C2=NOC3COC4C=CC=CC4OCC23)cc1 (centres undefined)	> 30.2	> 30.2 µM	
COc1cc(/C=C2\S/C(=N/Nc3nc(-c4ccc(Br)cc4)cs3)NC2=O)cc(OC)c1OC	> 200	17 µM	
CCn1cc(C(=O)O)c(=O)c2cc3c(cc21)OCO3	> 38	> 38 µM	
CC(C)(CO)N1C(=O)c2ccccc2C1(O)c1ccc(Cl)cc1 (centres undefined)	> 200	91.2 µM	
COc1ccc(/C=c2\c(=O)[nH]c3nc4ccccc4c(=O)n23)cc1	> 200	34.7 µM	
Cc1ccccc1C(C#N)/C(=N/NC(=O)c1cc2ccccc2cc1O)C(=O)Nc1cccc(Cl)c1 (centres undefined)	> 191	4.9 µM	
Nc1nc(Cl)c(N)c(NCC2(CO)CC2)n1	> 200	> 200 µM	
O=C(NC1CC(NC(=O)OCc2ccccc2)C2c3ccccc3C12)OCc1ccccc1 (centres undefined)			inactive
O=C(Nc1cccc(NC(=O)c2cc(=O)c3ccccc3o2)n1)c1cc(=O)c2ccccc2o1	> 151	> 151 µM	
CC(=O)N(O)CCCCCNC(=O)CCC(=O)N(O)CCCCCNC(=O)CCC(=O)N(O)CCCCCN	> 110	4.57 µM and 3.63 µM	
COc1ccc(-c2[nH]c(-c3ccc(OC)cc3)c(-c3ccccn3)c2-c2ccccn2)cc1	> 200	24.5 µM	
CCC[CH2][Ge]([CH2]CCC)([CH2]CCC)[O]C(=O)CCl	> 32.4	> 32.4 µM	
COc1cc2c(c(OC)c1OC)C(c1ccc3c(c1)OCO3)C1COC(=O)C1C2 (centres undefined)	> 91.2	> 91.2 µM	
NC1=NS(=O)(=O)Nc2nc(-c3ccccc3)c(-c3ccccc3)nc21	> 355	182 µM	
Brc1ccc2c(-c3nc(-c4c[nH]c5ccccc45)cs3)c[nH]c2c1	> 100	6.46 µM	
c1ccc2c3c([nH]c2c1)[C@@H]1CCN2CCC[C@@H]2N1CC3	> 200	97.7 µM	
Cc1[nH]c(C)c2ccc(=O)ccc12	> 240	145 µM	
O=S(=O)(c1ccccc1)C(Cl)c1cccc(Cl)c1 (centres undefined)	> 63.1	> 63.1 µM	
C[C@H](CCCN1CCOCC1)[C@H]1CC[C@H]2[C@@H]3CC[C@@H]4C[C@H](O)CC[C@]4(C)[C@H]3CC[C@]12C	> 50.1	9.12 µM	

Compound	EC50 [µM]	IC50	outcome
CC1(C)OP(=O)(O)C=C1Sc1ccc([N+](=O)[O-])cc1[N+](=O)[O-]	> 200	> 200 µM	
COc1cccc2c1C(=O)c1ccc3cc(CCl)cc(O)c3c1C2=O	> 200	0.468 µM	
Brc1ncnc2c1ncn2C1CCCS1 (centres undefined)			inactive
CC(Cn1c(=O)oc2ccccc21)N(C)C (centres undefined)	> 200	> 200 µM	
Cc1ccc(SCC(O)=C2C(=O)CCCC2=O)cc1	> 245	158 µM	
CCOC(=O)CN1CCC2CC1c1c([nH]c3ccccc13)C21OCCO1 (centres undefined)	> 200	> 200 µM	
C=C(C)CNC1=C(C)C(=O)C2=C(C1=O)[C@H](COC(N)=O)[C@]1(OC)[C@@H]3N[C@@H]3CN21	> 200	14.5 µM	
OC1CN2CC[C@H](O)C2C(O)[C@@H]1O (some centres undefined)	61.7	1320 µM	
CC(=O)/C(C=Nc1c(C)n(C)n(C)c1=O)=C(/O)c1ccccc1	> 200	89.1 µM	
c1cc(C2=NCCO2)c2ccsc2c1	> 200	155 µM	
CC(=O)Nc1ccc(S(=O)(=O)NN(C)S(=O)(=O)c2ccc(C)cc2)cc1	> 18.2	> 18.2 µM	
COC(=O)c1oc([N+](=O)[O-])c(-c2ccccc2)c1-c1ccccc1	> 57.5	> 57.5 µM	
CC1OC1C(=O)P(=O)(O)O (centres undefined)	> 200	> 200 µM	
COc1ccc(NS(=O)CCCc2ccccc2)cc1 (centres undefined)	> 200	16.6 µM	
Cc1cc(NS(=O)(=O)c2ccc(Nc3c4ccccc4nc4c(C(=O)NCC#N)cccc34)cc2)no1	> 200	10.7 µM	
COc1cc2c3cc1Oc1c(OC)c(OC)cc4c1C(Cc1ccc(cc1)Oc1cc(ccc1O)CC3N(C)CC2)N(C)CC4 (centres undefined)	> 22.4	> 22.4 µM	inactive
COc1ccc(C(=O)Nc2ccn(CCOC(=O)c3ccc(OC)cc3)c(=O)n2)cc1	> 44.7	> 44.7 µM	
O=C(Nc1cc2cc([N+](=O)[O-])ccc2oc1=O)c1cccs1	> 61.7	> 61.7 µM	
CN1c2ccccc2C(=O)NC12CCN(CC1COc3ccccc3O1)CC2 (centres undefined)	> 200	89.1 µM	
CC(C)(NO)/C(=N\O)c1ccco1	> 200	> 200 µM	
